Series [1] has as its system ECHCG—Barnyardgrass (Echinochloa crus-galli). The series is described as follows: General postemergence herbicidal activity, barnyardgrass. To be noted: post-emergence, 336 h, post-emergent, rate 140 g ai/ha, visual score after 14 days (0 no injury, 100 complete kill), read-out: % Growth Reduction ECHCG. Format: in vivo. On the procedure:
(§1) Seeds or nutlets of the desired test plant species were planted in Sun Gro MetroMix® 306 planting mixture, which typically has a pH of 6.0 to 6.8 and an organic matter content of about 30 percent, in plastic pots with a surface area of 64 square centimeters. When required to ensure good germination and healthy plants, a fungicide treatment and/or other chemical or physical treatment was applied. The plants were grown for 7-21 days in a greenhouse with an approximate 15 hour photoperiod which was maintained at about 23-29° C. during the day and 22-28° C. during the night. Nutrients and water were added on a regular basis and supplemental lighting was provided with overhead metal halide 1000-Watt lamps as necessary. The plants were employed for testing when they reached the first or second true leaf stage.
(§2) A weighed amount, determined by the highest rate to be tested, of each test compound was placed in a 25 mL glass vial and was dissolved in 4 mL of a 97:3 v/v (volume/volume) mixture of acetone and dimethyl sulfoxide (DMSO) to obtain concentrated stock solutions. […] The concentrated stock solutions obtained were diluted with 20 mL of an aqueous mixture containing acetone, water, isopropyl alcohol, DMSO, Atplus 411F crop oil concentrate, and Triton X-155 surfactant in a 48.5:39:10:1.5:1.0:0.02 v/v ratio to obtain spray solutions containing the highest application rates. Additional application rates were obtained by serial dilution of 12 mL of the high rate solution into a solution containing 2 mL of 97:3 v/v (volume/volume) mixture of acetone and DMSO and 10 mL of an aqueous mixture containing acetone, water, isopropyl alcohol, DMSO, Atplus 411F crop oil concentrate, and Triton X-155 surfactant in a 48.5:39:10:1.5:1.0:0.02 v/v ratio to obtain ½X, ¼X, ⅛X and 1/16X rates of the high rate. Compound requirements are based upon a 12 mL application volume at a rate of 187 L/ha. Formulated compounds were applied to the plant material with an overhead Mandel track sprayer equipped with 8002E nozzles calibrated to deliver 187 L/ha over an application area of 0.503 square meters at a spray height of 18 inches […] above the average plant canopy height. Control plants were sprayed in the same manner with the solvent blank.
(§3) The treated plants and control plants were placed in a greenhouse as described above and watered by sub-irrigation to prevent wash-off of the test compounds. After 14 days, the condition of the test plants as compared with that of the untreated plants was determined visually and scored on a scale of 0 to 100 percent where 0 corresponds to no injury and 100 corresponds to complete kill.

Series [2] has as its system CIRAR—Canada thistle (Cirsium arvense). The series is described as follows: General postemergence herbicidal activity, Canada thistle. The following applies: post-emergence, 336 h, post-emergent, rate 140 g ai/ha, visual score after 14 days (0 no injury, 100 complete kill), read-out: % Growth Reduction CIRAR. Format: in vivo. On the procedure:
as §1, §2, §3

For another series, the system named is ZEAMX—Corn (Zea mays). The series is described as follows: General preemergence herbicidal activity, corn. Format: in vivo. The following applies: pre-emergent, rate 140 g ai/ha, visual score after 20-22 days (0 no injury, 100 complete kill or no emergence), read-out: % Growth Inhibition ZEAMX. The text has this:
(§4) Seeds of the desired test plant species were planted in a soil matrix prepared by mixing a loam soil (43 percent silt, 19 percent clay, and 38 percent sand, with a pH of about 8.1 and an organic matter content of about 1.5 percent) and sand in a 70 to 30 ratio. The soil matrix was contained in plastic pots with a surface area of 113 square centimeters. When required to ensure good germination and healthy plants, a fungicide treatment and/or other chemical or physical treatment was applied. A weighed amount, determined by the highest rate to be tested, of each test compound was placed in a 25 mL glass vial and was dissolved in 6 mL of a 97:3 v/v (volume/volume) mixture of acetone and DMSO to obtain concentrated stock solutions. […] The stock solutions obtained were diluted with 18 mL of a 0.1% v/v aqueous solution of Tween® 20 surfactant to obtain spray solutions containing the highest application rate. Additional application rates were obtained by serial dilution of 12 mL of the high rate solution into a solution containing 3 mL of 97:3 v/v mixture of acetone and DMSO and 9 mL of the 0.1% v/v aqueous solution of Tween® 20 surfactant to obtain 1⁄2X, 1⁄4X, 1⁄8X and 1/16X rates of the high rate. Compound requirements are based upon a 12 mL application volume at a rate of 187 L/ha. Formulated compounds were applied to the plant material with an overhead Mandel track sprayer equipped with […] nozzles calibrated to deliver 187 L/ha over an application area of 0.503 square meters at a spray height of 18 inches (43 cm) above the soil surface. Control plants were sprayed in the same manner with the solvent blank. The treated pots and control pots were placed in a greenhouse maintained with an approximate 15 hour photoperiod and temperatures of about 23-29° C. during the day and 22-28° C. during the night. Nutrients and water were added on a regular basis and supplemental lighting was provided with overhead metal halide 1000-Watt lamps as necessary. The water was added by top-irrigation. After 20-22 days, the condition of the test plants that germinated and grew as compared with that of the untreated plants that emerged and grew was determined visually and scored on a scale of 0 to 100 percent where 0 corresponds to no injury and 100 corresponds to complete kill or no emergence.

The subject of series [3] is ABUTH—Velvetleaf (Abutilon theophrasti). The series is described as follows: General postemergence herbicidal activity, velvetleaf. Format: in vivo. To be noted: post-emergence, 336 h, post-emergent, rate 140 g ai/ha, visual score after 14 days (0 no injury, 100 complete kill), read-out: % Growth Reduction ABUTH. On the procedure:
as §1, §2, §3

In series [4] the test system is CHEAL—Common lambsquarters (Chenopodium album). Put plainly: General preemergence herbicidal activity, common lambsquarters. The following applies: pre-emergent, rate 140 g ai/ha, visual score after 20-22 days (0 no injury, 100 complete kill or no emergence), read-out: % Growth Inhibition CHEAL. It is filed as in vivo.
Excerpt: as §4

The subject of series [5] is SORVU—Common sorghum (Sorghum vulgare). Put plainly: General preemergence herbicidal activity, common sorghum. To be noted: pre-emergent, rate 140 g ai/ha, visual score after 20-22 days (0 no injury, 100 complete kill or no emergence), read-out: % Growth Inhibition SORVU. It is filed as in vivo.
Excerpt: as §4

The subject of series [6] is POLCO—Wild buckwheat (Polygonum convolvulus). Put plainly: General postemergence herbicidal activity, wild buckwheat. The following applies: Fallopia convolvulus, post-emergence, 336 h; post-emergent, rate 140 g ai/ha, visual score after 14 days (0 no injury, 100 complete kill); read-out: % Growth Reduction POLCO. Format: in vivo. On the procedure:
as §1, §2, §3

The subject of series [7] is HELAN—Common sunflower (Helianthus annuus). The series is described as follows: General preemergence herbicidal activity, common sunflower. The following applies: pre-emergent, rate 140 g ai/ha, visual score after 20-22 days (0 no injury, 100 complete kill or no emergence), read-out: % Growth Inhibition HELAN. It is filed as in vivo.
Excerpt: as §4

Series [8] relates to ABUTH—Velvetleaf (Abutilon theophrasti). Put plainly: General preemergence herbicidal activity, velvetleaf. It is filed as in vivo. The following applies: pre-emergent, rate 140 g ai/ha, visual score after 20-22 days (0 no injury, 100 complete kill or no emergence), read-out: % Growth Inhibition ABUTH.
Excerpt: as §4

Our source for the melting point, pest or weed control and inhibition values is US8598085B2, “2-(2-fluoro-substituted phenyl)-6-amino-5-chloro-4-pyrimidinecarboxylates and their use as herbicides” (Dow AgroSciences LLC, priority 2007, dated 2013).

The structures appear in SMILES notation.

The compound `Nc1nc(-c2ccc(Cl)cc2F)nc(C(=O)O)c1Cl` [Compound 11, 6-Amino-5-chloro-2-(4-chloro-2-fluorophenyl)pyrimidine-4-carboxylic acid] had a melting point of 194 to 196 °C. The pest or weed control at 140 g/ha in [1] came out at 85%. For the same compound, in series [2], the pest or weed control at 140 g/ha was 100%. In the series with ZEAMX—Corn (Zea mays), the inhibition at 140 g/ha amounted to 0%. For the same compound, the pest or weed control at 140 g/ha in [3] was determined as 99%. Also, the inhibition at 140 g/ha in [4] was determined as 100%. Further, in [5], the inhibition at 140 g/ha amounted to 95%. In addition, the pest or weed control at 140 g/ha in series [6] was 100%. For the same compound, in series [7], the inhibition at 140 g/ha amounted to 95%. Further, the inhibition at 140 g/ha in [8] turned out to be 90%.
As for `Cc1ccc(-c2nc(N)c(Cl)c(C(=O)O)n2)c(F)c1F` [Compound 14, 6-Amino-5-chloro-2-(2,3-difluoro-4-methylphenyl)pyrimidine-4-carboxylic acid], the pest or weed control at 140 g/ha was 95% in series [1], 85% in series [2], 90% in series [3] and 80% in [6]. For the same compound, the inhibition at 140 g/ha in the series with ZEAMX—Corn (Zea mays) was 30%; in series [4], 100%; in [5] it was 40%; in series [7], 60%; in series [8], 100%.
On to `Nc1nc(-c2ccc(C(F)(F)F)cc2F)nc(C(=O)O)c1Cl` [Compound 15, 6-Amino-5-chloro-2-(2-fluoro-4-trifluoromethylphenyl)pyrimidine-4-carboxylic acid], for which the pest or weed control at 140 g/ha in [1] is 50%; in series [2], 80%; in [3] it was 40%; in series [6], 65%. Besides, the inhibition at 140 g/ha came out at 65% in the series with ZEAMX—Corn (Zea mays); 60% in [4]; 0% in series [5]; 10% in series [7]; 10% in series [8].
Regarding `Nc1nc(-c2ccc(Cl)c(F)c2F)nc(C(=O)O)c1Cl` [Compound 12, 6-Amino-5-chloro-2-(4-chloro-2,3-difluorophenyl)pyrimidine-4-carboxylic acid], the melting point was in the range of 209 to 211 °C. Moreover, the pest or weed control at 140 g/ha in series [1] is 90%. In addition, the pest or weed control at 140 g/ha in series [2] came out at 90%. In addition, the inhibition at 140 g/ha in the series with ZEAMX—Corn (Zea mays) is 15%. The pest or weed control at 140 g/ha in series [3] is 100%. In series [4], the inhibition at 140 g/ha was determined as 100%. Further, the inhibition at 140 g/ha in series [5] came out at 90%. For the same compound, the pest or weed control at 140 g/ha in series [6] is 100%. Also, the inhibition at 140 g/ha in series [7] was 100%. The inhibition at 140 g/ha in series [8] amounted to 100%.
Consider `Nc1nc(-c2ccc(C(F)(F)F)c(F)c2F)nc(C(=O)O)c1Cl` [Compound 16, 6-Amino-5-chloro-2-(2,3-difluoro-4-trifluoromethylphenyl)pyrimidine-4-carboxylic acid], for which the pest or weed control at 140 g/ha in series [1] came out at 90%; in [2] it was 90%; in [3], 65%; in [6], 95%. In addition, the inhibition at 140 g/ha in the series on ZEAMX—Corn (Zea mays) worked out at 30%; in series [4], 100%; in [5] it was 60%; in series [7] it was 65%; in series [8] it was 60%.
